This passage reports IC50 results from US10399933B2, “Inhibitors of indoleamine-2,3-dioxygenase for the treatment of cancer” (BRISTOL-MYERS SQUIBB COMPANY, priority 2015, dated 2019).

pIC50: −log10 of the molar value. Bounds are passed on as bounds.

The test addresses human IDO1 (Homo sapiens, UniProt P14902). The test is described as follows: Human IDO-1 inhibitory activity in Hela cells (interferon-gamma stimulated). Format: cell-based. Further details: endogenous in cells; host or cells: HeLa cells stimulated with interferon-gamma. To be noted: 18 hours, unstimulated wells = 100% inhibition. As to the method:
HeLa cells were seeded at 20,000 cells per 30 μL per well with RPMI/phenol red free media containing 10% FBS in a 384-well tissue culture plate (black with clear bottoms). 50 nL of compound was added to cells and incubated at 37° C. for one hour. 20 μL of the recombinant human Interferon-gamma (R&D System, Cat. #285-IF, at final concentration of 10 ng/ml) or recombinant murine Interferon-gamma (PEPROTECH® Inc., Cat. #315-05, final concentration of 5 ng/ml) was added to activate IDO signaling. The cells were incubated for 18 hours in 37° C. incubator with 5% CO2.
Compound treatment was stopped by adding 5 μl trichloroacetic acid to a final concentration of 3%. Subsequently, the cell plate was further incubated at 50° C. for 30 minute. An equal volume supernatant (20 μL) and 2% (w/v) Ehrlich reagent (4-dimethylaminobenzaldehyde) in glacial acetic acid were mixed in a new clear bottom 384-well plate. This plate was incubated at room temperature for 30 minutes. Absorbance at 490 nm was measured on Envision plate reader.
Compound IC50 values were calculated using counts from unstimulated (no INF-gamma treatment) wells as 100% inhibition. INF-gamma treatment without compound treatment as 0% inhibition.

Chain of human IDO1 (P14902 whole entry): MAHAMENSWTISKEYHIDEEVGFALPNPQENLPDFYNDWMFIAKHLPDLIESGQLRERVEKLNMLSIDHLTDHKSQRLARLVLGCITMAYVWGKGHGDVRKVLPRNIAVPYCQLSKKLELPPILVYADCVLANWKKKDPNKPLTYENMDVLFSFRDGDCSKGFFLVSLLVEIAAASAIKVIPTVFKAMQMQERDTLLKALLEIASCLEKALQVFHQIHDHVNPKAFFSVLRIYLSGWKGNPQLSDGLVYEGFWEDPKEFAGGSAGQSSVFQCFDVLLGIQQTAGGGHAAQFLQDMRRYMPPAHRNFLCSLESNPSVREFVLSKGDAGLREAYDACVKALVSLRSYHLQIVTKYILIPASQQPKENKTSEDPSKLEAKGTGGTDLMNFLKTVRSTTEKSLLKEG

In turn, `CCN(c1ccc(C(CC(=O)O)C2CC2)cc1NC(=O)Nc1ccc(C#N)cc1)C1CCS(=O)(=O)CC1` (single isomer, unassigned) [Example 348 E2, 3-(3-(3-(4-Cyanophenyl)ureido)-4-((1,1-dioxidotetrahydro-2H-thiopyran-4-yl)(ethyl)amino)phenyl)-3-cyclopropylpropanoic Acid] showed a pIC50 of less than 7.30.

The compound “(S)-3-(4-((1,1-dioxidotetrahydro- 2H-thiopyran-4-yl)(ethyl)amino)- 3-((2-methoxypyrimidin-5- yl)amino)phenyl)-4- isopropoxybutanoic acid [Example 327]” showed a pIC50 of less than 7.30.

In the case of `CCN(c1ccc(C(CC(=O)O)C2CC2)cc1NC(=O)Nc1ccc(C#N)cc1)C1CCS(=O)(=O)CC1` (single isomer, unassigned) [Example 348 E1, 3-(3-(3-(4-Cyanophenyl)ureido)-4-((1,1-dioxidotetrahydro-2H-thiopyran-4-yl)(ethyl)amino)phenyl)-3-cyclopropylpropanoic Acid], the pIC50 was less than 7.30.

In turn, `COCC(CC(=O)O)c1ccc(N2CCOC(C)(C)C2)c(NC(=O)Nc2ccc(Cl)cc2F)c1` (single isomer, unassigned) [Example 1318 E2, 3-(3-(3-(4-Chloro-2-fluorophenyl)ureido)-4-(2,2-dimethylmorpholino)phenyl)-4-methoxybutanoic Acid] gave a pIC50 of less than 7.30.

“(S)-3-(4-((1,1-dioxidotetrahydro- 2H-thiopyran-4-yl)(ethyl)amino)- 3-((4-fluorophenyl)amino)phenyl)- 4-isopropoxybutanoic acid [Example 326]”: the pIC50 is greater than 7.30.

With `CCC(CC(=O)O)c1ccc(N2CCOC(C)(C)C2)c(Nc2ccc(Cl)cc2)c1` (single isomer, unassigned) [Example 1319 E2, 3-(3-((4-Chlorophenyl)amino)-4-(2,2-dimethylmorpholino)phenyl)pentanoic Acid], the pIC50 was greater than 7.30.

`CCN(c1ccc([C@H](COC)CC(=O)O)cc1Nc1ccc(C#N)c(C(F)(F)F)c1)C1CCOCC1` (single isomer, unassigned) [Example 420]: the pIC50 is less than 7.30.

In the case of `CCCN(c1ccc(C(COC)CC(=O)O)cc1Nc1ccc(C#N)cc1)C1CCS(=O)(=O)CC1` (single isomer, unassigned) [Example 182 Enantiomer 1, 3-(3-((4-Cyanophenyl)amino)-4-((1,1-dioxidotetrahydro-2H-thiopyran-4-yl)(propyl)amino)phenyl)-4-methoxybutanoic Acid], the pIC50 was greater than 7.30.

With “(R)-3-(3-((4-cyano-3- methylphenyl)amino)-4- (ethyl(tetrahydro-2H-pyran-4- yl)amino)phenyl)-4- methoxybutanoic acid [Example 391]”, the pIC50 is greater than 7.30.

On to `COCC(CC(=O)O)c1ccc(N2CCOC(C)C2)c(NC(=O)Nc2ccc(Cl)cc2F)c1` (single isomer, unassigned) [Example 1314 D2, 3-(3-(3-(4-Chloro-2-fluorophenyl)ureido)-4-(2-methylmorpholino)phenyl)-4-methoxybutanoic Acid], for which the pIC50 was less than 7.30.

`CCN(c1ccc([C@H](COC)CC(=O)O)cc1Nc1ccc2nc(C)sc2c1)C1CCOCC1` (single isomer, unassigned) [Example 414] had a pIC50 greater than 7.30.

As to `CCC(CC(=O)O)c1ccc(N(CCOC)C2CCOCC2)c(NC(=O)Nc2ccc(C)cc2)c1` (single isomer, unassigned) [Example 1264 E2, 3-(4-((2-Methoxyethyl)(tetrahydro-2H-pyran-4-yl)amino)-3-(3-(p-tolyl)ureido)phenyl)pentanoic Acid], the pIC50 is less than 7.30.

As for “(R)-3-(4-(ethyl(tetrahydro-2H- pyran-4-yl)amino)-3-((2- (tetrahydro-2H-pyran-4- yl)pyrimidin-5-yl)amino) phenyl)-4-methoxybutanoic acid [Example 403]”, the pIC50 was less than 7.30.

“(R)-3-(3-((4-chlorophenyl)amino)- 4-((1,1-dioxidotetrahydro-2H- thiopyran-4-yl)(ethyl)amino) phenyl)-4-isopropoxybutanoic acid [Example 330]”: the pIC50 is greater than 8.30.

Turning to `CCOc1cc(Nc2cc([C@H](COC)CC(=O)O)ccc2N(CC)C2CCOCC2)ccc1C#N` (single isomer, unassigned) [Example 407], the pIC50 is greater than 7.30.

Turning to `CCC(CC(=O)O)c1ccc(N(CCOC)C2CCOCC2)c(Nc2ccc(Cl)cc2)c1` (single isomer, unassigned) [Example 1257 E2, 3-(3-((4-Chlorophenyl)amino)-4-((2-methoxyethyl)(tetrahydro-2H-pyran-4-yl)amino)phenyl)pentanoic Acid], the negative-log IC50 (pIC50) is greater than 8.30.

Take `CCN(c1ccc(C(COC)CC(=O)O)cc1Nc1cnc(OC)nc1)C1CCS(=O)(=O)CC1` (single isomer, unassigned) [Example 168 Enantiomer 2, 3-(4-((1,1-Dioxidotetrahydro-2H-thiopyran-4-yl)(ethyl)amino)-3-((2-methoxypyrimidin-5-yl)amino)phenyl)-4-methoxybutanoic Acid]: the pIC50 was less than 7.30.

As for `CCN(c1ccc([C@H](COC)CC(=O)O)cc1Nc1ccc(F)cc1F)C1CCOCC1` (single isomer, unassigned) [Example 402], the pIC50 is greater than 7.30.

Take `CCC(CC(=O)O)c1ccc(N2CCNCC2)c(Nc2ccc(C#N)cc2)c1` (single isomer, unassigned) [Example 671 Enantiomer 2, 3-(3-((4-Cyanophenyl)amino)-4-(piperazin-1-yl)phenyl) pentanoic Acid]: the pIC50 is less than 7.30.

Compound `CCN(c1ccc([C@H](COC)CC(=O)O)cc1Nc1cccc(OC(F)(F)C(F)F)c1)C1CCOCC1` (single isomer, unassigned) [Example 397] gave a pIC50 of less than 7.30.

The compound `CCN(c1ccc(C(COC)CC(=O)O)cc1Nc1ccc(C#N)cc1)C1CCCOC1` (single isomer, unassigned) [265 E1] had a negative logarithm of the IC50 (pIC50) greater than 8.30.

The compound `CCN(c1ccc(C(COC)CC(=O)O)cc1Nc1ccc(C#N)cc1)C1CCCOC1` (single isomer, unassigned) [265 E2] had a pIC50 greater than 8.30.

In turn, `COCC(CC(=O)O)c1ccc(N2C[C@@H](C)O[C@@H](C)C2)c(NC(=O)Nc2ccc(C#N)cc2)c1` (single isomer, unassigned) [Example 605 Diastereomer 2] showed a pIC50 of less than 7.30.

Compound `COCC(CC(=O)O)c1ccc(N2CCOC(C)(C)C2)c(Nc2ccc(Cl)cc2)c1` (single isomer, unassigned) [Example 1315 E2, 3-(3-((4-Chlorophenyl)amino)-4-(2,2-dimethylmorpholino)phenyl)-4-methoxybutanoic Acid] had a pIC50 of less than 7.30.

Compound `CCCN(c1ccc(C(COC)CC(=O)O)cc1Nc1ccc(C#N)cc1)C1CCS(=O)(=O)CC1` (single isomer, unassigned) [Example 182 Enantiomer 2, 3-(3-((4-Cyanophenyl)amino)-4-((1,1-dioxidotetrahydro-2H-thiopyran-4-yl)(propyl)amino)phenyl)-4-methoxybutanoic Acid] had a pIC50 of less than 7.30.

As for `CCN(c1ccc([C@H](COC)CC(=O)O)cc1Nc1ccc(Cl)cn1)C1CCOCC1` (single isomer, unassigned) [Example 393], the pIC50 is greater than 7.30.

In the case of `CCc1ccc(Nc2cc([C@H](COC)CC(=O)O)ccc2N(CC)C2CCOCC2)cc1` (single isomer, unassigned) [Example 411], the pIC50 was greater than 8.30.

Take `COC[C@@H](CC(=O)O)c1ccc(N2CCOc3ccccc32)c(Nc2ccc(C#N)cc2)c1` (single isomer, unassigned) [Example 1358]: the pIC50 was less than 7.30.

As to `CC(CC(=O)O)c1ccc(N2C[C@@H](C)O[C@@H](C)C2)c(NC(=O)Nc2ccc(Cl)cc2F)c1` (single isomer, unassigned) [Example 749 Enantiomer 2], the pIC50 is less than 7.30.

The compound `CCN(c1ccc(C(COC(C)C)CC(=O)O)cc1Nc1ccc(F)cc1)C1CCS(=O)(=O)CC1` (centres unmarked) [Example 340] gave a pIC50 greater than 7.30.

Compound `CCN(c1ccc(C(COC)CC(=O)O)cc1Nc1cnc(OC)nc1)C1CCS(=O)(=O)CC1` (single isomer, unassigned) [Example 168 Enantiomer 1, 3-(4-((1,1-Dioxidotetrahydro-2H-thiopyran-4-yl)(ethyl)amino)-3-((2-methoxypyrimidin-5-yl)amino)phenyl)-4-methoxybutanoic Acid] showed a pIC50 of less than 7.30.

For the compound `CCN(c1ccc([C@H](COC)CC(=O)O)cc1Nc1ccc(C#N)c(C)n1)C1CCOCC1` (single isomer, unassigned) [Example 419], the pIC50 was less than 7.30.

`COC[C@H](CC(=O)O)c1ccc(N2CCOc3ccccc32)c(Nc2ccc(C#N)cc2)c1` (single isomer, unassigned) [Example 1359] showed a pIC50 of less than 7.30.

“3-(4-((1,1-dioxidotetrahydro-2H- thiopyran-4-yl)(ethyl)amino)-3- ((4-fluorophenyl)amino)phenyl)-4- isopropoxybutanoic acid [Example 345]” gave a pIC50 of less than 7.30.

With “(S)-3-(4-(ethyl(tetrahydro- 2H-pyran-4-yl)amino)-3-((2- (tetrahydro-2H-pyran-4- yl)pyrimidin-5-yl)amino) phenyl)-4-methoxybutanoic acid [Example 366]”, the pIC50 is less than 7.30.
